This is an account of results in ChEMBL document CHEMBL1131856, “Wasalexins A and B, new phytoalexins from wasabi: isolation, synthesis, and antifungal activity” (1999).

SMILES strings stand for the structures.

The subject of assay [1] is Plenodomus lingam. The assay can be described thus: Antifungal activity against P. Lingam by spore germination assay after 24 hours; No detectable inhibitory activity. The class given is functional, organism-based.
The subject of assay [2] is Plenodomus lingam. The assay is described as follows: Antifungal activity against P. Lingam by spore germination assay after 24 hours; range is 40-50%. The class given is functional.

In the case of `CSC(=N/C=C1/C(=O)N(C)c2ccccc21)SC`, in the assay with Plenodomus lingam [1], the Activity entry is “No detectable inhibitory activity”. In the assay on Plenodomus lingam [2], `COC(=O)c1cn(OC)c2ccccc12` had an Inhibition of 50%. Compound `CON1C(=O)/C(=C/N=C(SC)SC)c2ccccc21` yielded an Inhibition in the assay on Plenodomus lingam [2] of 50%.

One may read the Inhibition as the percentage by which the read-out fell short of the control. Lower therefore signals a response near the control.
